These are literature values, as cited in US20140090255A1, “Skin Engaging Member Comprising At Least One Thermally Resilient Sensate” (The Gillette Company, priority 2012, published 2014).

For the series the following is noted: concentration where the cooling effect could be clearly recognized; Emberger and Hopp 1987.
For the molecule `CC(C)[C@@H]1CC[C@@H](C)C[C@@H]1O` [Example 1-neomenthol, 1-neomenthol], the cooling threshold entry is recorded as “about 3,000 ppb”.
As for `CC(C)[C@@H]1CC[C@@H](C)C[C@H]1O` [L-menthol], the cooling threshold result is given as “about 800 ppb”.
Consider `CC(C)[C@@H]1CC[C@@H](C)C[C@@H]1O` [d-neomenthol], for which the cooling threshold entry was “about 25,000 ppb”.
